Tests used:
[1] = target: T1, tyrosinase from mushroom (Agaricus bisporus, UniProt C7FF04); experiment: Inhibition of commercial mushroom tyrosinase, substrate L-tyrosine; assay type: biochemical; conditions: for inhibition at 500 µM: read-out: Tyrosinase inhibition with L-tyrosine [%]
Procedure: (§1) Studies on the Inhibition of the Activity of Commercial Tyrosinase from Mushroom (Sigma: T3824)
(§2) The following substrates were used for the enzymatic reaction: L-tyrosine and L-3,4-dihyroxyphenylalanine (L-DOPA). Both substrates were used in independent experiments. According to the literature, the use of L-DOPA enables the assessment of tyrosinase diphenolase activity, and L-tyrosine—the tyrosinase monophenolase activity. The determinations were performed in 96-well plates, in each well there was placed: 170 μL or 127.5 μL of 50 mM phosphate buffer (pH=6.8) with tyrosinase (1U/well or 3U/well) and 10 μL of a solution of the tested compound in DMSO (the final concentration in the well was 500 μM, 250 μM or 125 μM). The negative control used 10 u L of pure solvent (DMSO). To initiate the reaction, an appropriate substrate was added: L-tyrosine (62.5 μL of solution in phosphate buffer) or L-DOPA (20 μL of solution in phosphate buffer). After a 25-minute incubation, the absorbance was measured at 475 nm using a microplate reader. The percentage of inhibition of tyrosinase activity was calculated using the formula: [(AC−AT)/[…], where AC—is the absorbance of the negative control, AT—is the absorbance of the sample containing the tested compound.

[2] = test system: B16-F10 murine melanoma cell line; experiment: Cytotoxicity (MTT) in B16-F10 murine melanoma cells; assay type: cell-based; conditions: 48 h
Procedure: Cytotoxicity Assessment in the B16-F10 Murine Melanoma Cell Line (ATTC CRL-6745)—Preliminary Safety Assessment for Subsequent Studies
In order to determine safe doses of compounds for testing the inhibition of melanogenesis in a murine melanoma cell line, cytotoxicity tests were performed. Cytotoxicity was determined by the colorimetric method using MTT ([3-(4,5-dimethyl-2-thiazolyl)-2,5-diphenyl-2H-tetrazolium bromide, Sigma M5655). For this purpose, cells were transferred to 96-well plates in an amount of 5000/well. After 24 h of culture in an incubator in F10-Ham medium with 1% FBS, the tested compounds at various concentrations were added to the wells together with fresh medium. DMSO was added to the medium in a negative control. The MTT test was performed after further culture for 48 h. Then the medium was removed and the formed formazan crystals were dissolved in DMSO. The absorbance was measured at 570 nm in a plate reader and the result was compared to the control (DMSO), which was 100%. The percentage of viability was calculated using the formula: [AT/AC*100], where AT is the absorbance of the test sample, AC—absorbance of the control sample.

[3] = Lipophilicity coefficient RM0 by reversed phase thin layer chromatography; assay type: physicochemical; conditions: RP-18 TLC, methanol/phosphate buffer pH=7.4
Procedure: Confirmation of the identity and purity of the obtained compounds consisted in the registration and interpretation of 1H NMR and 13C NMR spectra (the spectra were recorded using an ECZR 500 MHZ (JEOL) series FT-NMR spectrophotometer), as well as the registration and interpretation of LC-MS spectra (the spectra were recorded using Acquita UPLC system (Waters) coupled with a Waters TQD mass spectrometer). The melting point was measured using the open capillary method in the IA9300 device (Electrothermal). The lipophilicity coefficient RM0 was determined by reversed phase thin layer chromatography. In the study, aluminum plates 20×20 cm covered with modified silica gel RP-18 F254 (Merck) were used as the solid phase. The mobile phase consisted of solutions of methanol and 100 mM phosphate buffer (pH=7.4), characterized by a variable methanol content ranging from 95 to 65% (v/v). The tested compounds were dissolved in methanol to obtain solutions with a concentration of 1 mg/mL. Then, […] of the solutions prepared in this way were transferred to the starting line on aluminum plates, which were then placed in chromatographic chambers previously saturated with mobile phase vapors for at least 1 hour. All activities, including the development of chromatograms, were carried out at room temperature. After developing the chromatograms to approximately 1-2 cm from the end of the plate, the plates were dried and then the distance traveled by the tested compounds was visualized under UV light (λ=254 nm). The experiment was performed in duplicate for the specified conditions. For all samples, Rf was calculated according to the formula Rf=a/b, where a—the distance traveled by the tested compound, b—the distance traveled by the mobile phase. Then, the RM parameter was calculated for all samples according to the formula RM=log (1/Rf−1), obtaining a linear relationship between the RM values and the methanol concentration in the mobile phase. The log P coefficient was also calculated using the following computer programs: ACD/ChemSketch 2020.1.2 and ChemDraw 20.0.0.41.

[4] = target: T1, tyrosinase from mushroom; experiment: Inhibition of commercial mushroom tyrosinase, substrate L-DOPA; assay type: biochemical; conditions: for inhibition at 500 µM: read-out: Tyrosinase inhibition with L-DOPA [%]
Procedure: as §1, §2

T1 sequence (C7FF04 2-392): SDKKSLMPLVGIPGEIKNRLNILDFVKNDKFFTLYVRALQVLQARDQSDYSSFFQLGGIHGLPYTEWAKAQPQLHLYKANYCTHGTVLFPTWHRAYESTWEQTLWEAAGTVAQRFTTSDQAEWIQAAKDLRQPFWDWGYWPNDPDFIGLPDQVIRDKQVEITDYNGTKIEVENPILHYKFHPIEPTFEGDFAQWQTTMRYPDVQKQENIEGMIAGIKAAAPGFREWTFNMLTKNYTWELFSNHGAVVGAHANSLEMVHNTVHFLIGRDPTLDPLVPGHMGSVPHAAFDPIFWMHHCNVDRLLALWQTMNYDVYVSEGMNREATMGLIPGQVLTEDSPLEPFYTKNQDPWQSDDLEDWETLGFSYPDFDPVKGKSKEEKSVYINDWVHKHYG
T1 sequence (G1K3P4 entry or part of it, further chain): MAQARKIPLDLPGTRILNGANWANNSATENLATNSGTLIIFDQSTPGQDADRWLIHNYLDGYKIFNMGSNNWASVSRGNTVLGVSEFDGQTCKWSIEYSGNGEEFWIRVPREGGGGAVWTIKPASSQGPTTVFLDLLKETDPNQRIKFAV

| Compound | inhibition at 500 µM [1] | Cytotoxicity study in B16F10 cells, % viability ([2]; 12.5 μM) | Cytotoxicity study in B16F10 cells, % viability ([2]; 25 μM) | Cytotoxicity study in B16F10 cells, % viability ([2]; 50 μM) | Cytotoxicity study in B16F10 cells, % viability ([2]; 150 μM) | Cytotoxicity study in B16F10 cells, % viability ([2]; 200 μM) | Cytotoxicity study in B16F10 cells, % viability ([2]; 250 μM) | RM0 [3] | inhibition at 500 µM [4] | inhibition at 125 µM ([1]; 125 μM) | inhibition at 125 µM ([4]; 125 μM) |
| --- | --- | --- | --- | --- | --- | --- | --- | --- | --- | --- | --- |
| O=C(/C=C/c1ccc(Cl)cc1)NCCCCO [H-331/21, (2E)-3-(4-chlorophenyl)-N-(4-hydroxybutyl)prop-2-enamide] | 82.5 ± 0.87% | 49.0% | 47.8% | 54.2% | 32.7% | 51.9% | 52.7% | 2.14 | 64.31 ± 0.21% |  |  |
| CCC(CO)NC(=O)/C=C/c1ccc(C)cc1 (stereo not drawn) [H-409/21, (2E)-N-(1-hydroxybutan-2-yl)-3-(4-methylphenyl)prop-2-enamide] | 15.3 ± 8.27% |  |  |  | 83.2% | 95.3% | 103.4% | 2.49 | 21.8 ± 2.31% |  |  |
| Cc1ccc(/C=C/C(=O)NCCCO)cc1 [H-410/21, (2E)-N-(3-hydroxypropyl)-3-(4-methylphenyl)prop-2-enamide] | 0.51 ± 5.4% |  |  |  | 88.8% | 90.7% | 79.8% | 2.04 | 17 ± 5.66% |  |  |
| Cc1ccc(/C=C/C(=O)NCCCCO)cc1 [H-411/21, (2E)-N-(4-hydroxybutyl)-3-(4-methylphenyl)prop-2-enamide] | 20.4 ± 2.09% |  |  |  | 50.6% | 34.9% | 41.2% | 2.27 | 16.9 ± 7.94% |  |  |
| O=C(/C=C/c1ccc(Cl)cc1)NCCCCCCO [H-426/21, (2E)-3-(4-chlorophenyl)-N-(6-hydroxyhexyl)prop-2-enamide] |  |  |  |  | 30.3% | 28.2% | 28.3% | 3.02 |  | 39.9 ± 3.21% | 30.7 ± 1.82% |
| O=C(/C=C/c1ccccc1)NCCO [H-429/21, (2E)-N-(2-hydroxyethyl)-3-phenylprop-2-enamide] | 21 ± 8.83% |  |  |  | 86.4% | 79.8% | 80.9% | 1.27 | 30.5 ± 1.2% |  |  |
| O=C(/C=C/c1ccccc1)NCCCO [KM-634, (2E)-N-(3-hydroxypropyl)-3-phenylprop-2-enamide] | 27.4 ± 2.24% |  |  |  | 76.1% | 70.5% | 63.3% | 1.60 | 34.2 ± 2.32% |  |  |

From patent US20250263376A1, “(E)-N-CINNAMOYLAMINOALKANOLS WITH MELANOGENESIS INHIBITORY ACTIVITY” (Uniwersytet Jagiellonski, priority 2024, published 2025)
